Columns and labels:
[1] = Oral bioavailability in rat (dose 10 mg/kg); type: ADME, organism-based; settings: in vivo
[2] = Oral bioavailability in dog after administration of 1 mg/kg of compound; type: ADME, organism-based, Canis lupus familiaris; settings: in vivo
[3] = Maximum plasma concentration in dog after administration of 1 mg/kg dose of compound; type: ADME, organism-based, Canis lupus familiaris; parameters: dose 1 mg/kg
[4] = Plasma half-life (5 mg/kg) in rhesus monkey after intravenous administration; type: ADME, organism-based, Macaca mulatta
[5] = Oral bioavailability in Rhesus monkey (dose 5 mg/kg); type: ADME, organism-based, Macaca mulatta; settings: in vivo
[6] = (§1) Plasma half-life in dog after peroral administration was evaluated; type: ADME, organism-based, Canis lupus familiaris; settings: plasma, po
[7] = Maximum plasma concentration in dog after peroral administration of 1 mg/kg dose of compound; type: ADME, organism-based, Canis lupus familiaris; parameters: dose 1 mg/kg, route oral; settings: po
[8] = Concentration required to double the activated partial thromboplastin time (2x APTT) in human plasma; type: functional
Serine protease 1 = Serine protease 1 (Homo sapiens, UniProt P07477); experiment: Inhibitory constant against human trypsin
[9] = Maximum plasma concentration in rat after peroral administration of 10 mg/kg dose of compound; type: ADME, organism-based; parameters: dose 10 mg/kg, route oral; settings: po
in vivo = settings: dog, iv, 1 mg/kg
[10] = Maximum plasma concentration in rhesus monkey after peroral administration of 5 mg/kg dose of compound; type: ADME, organism-based, Macaca mulatta; parameters: dose 5 mg/kg, route oral; settings: po
[11] = Plasma half-life ([…] mg/kg) in rat after intravenous administration; type: ADME, organism-based; settings: 10 mg/kg
Prothrombin = Prothrombin (Homo sapiens, UniProt P00734); experiment: Inhibitory constant against thrombin (IIa)
[12] = Maximum plasma concentration in dog after administration of 0.7 mg/kg dose of compound; type: ADME, organism-based, Canis lupus familiaris; parameters: dose 0.7 mg/kg
[13] = Maximum plasma concentration in dog after administration of 0.5 mg/kg dose of compound; type: ADME, organism-based, Canis lupus familiaris; parameters: dose 0.5 mg/kg
[14] = Plasma half-life (5 mg/kg) in african green monkey after intravenous administration; type: ADME, organism-based; settings: chlorocebus aethiops
[15] = Oral bioavailability in dog after administration of 0.65 mg/kg of compound; type: ADME, organism-based, Canis lupus familiaris; settings: in vivo
Canis familiaris = experiment: as §1; type: ADME, organism-based, Canis lupus familiaris; settings: in vivo, po
[16] = Maximum plasma concentration in african green monkey after peroral administration of 5 mg/kg dose of compound; type: ADME, organism-based; parameters: dose 5 mg/kg, route oral; settings: chlorocebus aethiops, po
[17] = Plasma half-life (0.65 mg/kg) dog after intravenous administration; type: ADME, organism-based, Canis lupus familiaris
[18] = Oral bioavailability in african green monkey after administration of 5 mg/kg of compound; type: ADME, organism-based; settings: chlorocebus aethiops, in vivo
[19] = Maximum plasma concentration in dog after peroral administration of 0.65 mg/kg dose of compound; type: ADME, organism-based, Canis lupus familiaris; parameters: dose 0.65 mg/kg, route oral; settings: po

Sequence of Serine protease 1 (P07477 whole entry): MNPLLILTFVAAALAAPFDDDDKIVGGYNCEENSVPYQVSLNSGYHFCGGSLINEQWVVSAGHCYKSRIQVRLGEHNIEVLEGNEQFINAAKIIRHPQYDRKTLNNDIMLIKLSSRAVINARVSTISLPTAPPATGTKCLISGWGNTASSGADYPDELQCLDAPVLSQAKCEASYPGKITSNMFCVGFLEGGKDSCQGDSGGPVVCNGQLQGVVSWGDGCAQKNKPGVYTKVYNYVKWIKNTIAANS

SMILES	Cmax [3] [nM]	half-life [6] [h]	2x aPTT [8] [µM]	Ki (Serine protease 1) [µM]	Ki (Prothrombin) [µM]	other results
Cc1cnc(NCC(F)(F)c2ccccn2)c(=O)n1CC(=O)NCc1ncccc1F	5640	3.5	0.67	252		bioavailability [1]: 55%; bioavailability [2]: 87%; half-life [4]: 0.99 h; bioavailability [5]: 12%; Cmax [7]: 5640 nM; Cmax [9]: 2160 nM; half-life (in vivo): 3.5 h; Cmax [10]: 1100 nM; half-life [11]: 0.57 h
O=C(Cn1c(C(F)(F)F)cnc(NCC(F)(F)c2ccccn2)c1=O)NCc1ncccc1F				136	0.044	
Cc1ccnc(CNC(=O)Cn2c(C)cnc(NCC(F)(F)c3ccccc3)c2=O)c1			1.7	270	0.0048	
Cc1ccnc(CNC(=O)Cn2c(C)cnc(NCC(F)(F)c3ccccn3)c2=O)c1	4120	2.4	0.59	431	0.0028	
Cc1ccnc(CNC(=O)Cn2c(Cl)cnc(NCC(F)(F)c3ccccn3)c2=O)c1F	670	3.2	0.48	80	0.0009	
Cc1ccnc(CNC(=O)Cn2c(Cl)cnc(NCC(F)(F)c3ccccn3)c2=O)c1	2320	2.1	0.91	429	0.0053	
Cc1nc(N)ccc1CNC(=O)Cn1c(C)cnc(NCC(F)(F)c2ccccc2)c1=O				0.855		
Cc1nc(N)ccc1CNC(=O)Cn1c(C)cnc(NCC(C)c2ccccc2)c1=O (centres undefined)			0.61	1.6	0.0011	
O=C(Cn1ccnc(NCC(F)(F)c2ccccn2)c1=O)NCc1ncccc1F				> 1000	0.14	
O=C(Cn1c(Cl)cnc(NCC(F)(F)c2ccccn2)c1=O)NCc1ncccc1Cl	62	5.7	1.41	567	0.0079	
Cc1nc(N)ccc1CNC(=O)Cn1c(C)cnc(NCCc2cccnc2)c1=O			0.28	3.8	0.00054	
N#Cc1cnc(NCC(F)(F)c2ccccn2)c(=O)n1CC(=O)NCc1ncccc1F	1170	9.7	0.41	213	0.0023	
Cc1cnc(NCCc2ccccc2)c(=O)n1CC(=O)NCc1ccccn1				> 1000	0.39	
Cc1nc(N)ccc1CNC(=O)Cn1c(C)cnc(NCCc2ccccn2)c1=O			0.31	3.6	0.00027	
Cc1nc(N)ccc1CNC(=O)Cn1c(C)cnc(NCC(C)(C)c2ccccc2)c1=O			0.5	0.8	0.0011	
Cc1nc(N)ccc1CNC(=O)Cn1c(C)cnc(NCC(F)(F)c2ccccn2)c1=O			0.2	0.8		
Cc1nc(N)ccc1CNC(=O)Cn1c(C)cnc(NCCc2ccncc2)c1=O			0.45	4.6	0.0016	
Cc1ccnc(CNC(=O)Cn2c(C)cnc(NCC(F)(F)c3ccccn3)c2=O)c1F		1	0.48	118		Cmax [12]: 1660 nM
Cc1cnc(NCC(F)(F)c2ccccn2)c(=O)n1CC(=O)NCc1ccccn1			2.2	> 1000	0.015	
Cc1cnc(NCC(F)(F)c2ccccc2)c(=O)n1CC(=O)NCc1ncccc1F	3730	2	1.26	501	0.0068	
Cc1cnc(NCCc2ccccc2)c(=O)n1CC(=O)NCc1cccnc1				898	1.2	
Cc1ncccc1CNC(=O)Cn1c(C)cnc(NCCc2ccccc2)c1=O				> 100	0.28	
Cc1ccnc(CNC(=O)Cn2c(C)cnc(NCC(F)(F)c3ccccc3)c2=O)c1F	1830	0.7	0.72	40	0.0012	
COc1ccnc(CNC(=O)Cn2c(Cl)cnc(NCC(F)(F)c3ccccn3)c2=O)c1		2	0.71	665	0.0036	Cmax [13]: 530 nM
COc1cccnc1CNC(=O)Cn1c(Cl)cnc(NCC(F)(F)c2ccccn2)c1=O	900	2.3	2.19	706	0.015	
Cc1cnc(NCCc2ccccc2)c(=O)n1CC(=O)NCc1ccncc1				251	17	
Cc1cnc(NCC(F)(F)c2ccccc2)c(=O)n1CC(=O)NCc1cc(Cl)ccn1			0.89	47	0.0013	
Cc1ccnc(CNC(=O)Cn2c(C#N)cnc(NCC(F)(F)c3ccccn3)c2=O)c1F	1700	2.4	0.31	61	0.0004	
O=C(Cn1c(Cl)cnc(NCC(F)(F)c2ccccn2)c1=O)NCc1ncccc1F [DPOC-4088]	1380		0.78	202	0.0052	bioavailability [1]: 23%; half-life [14]: 1.6 h; bioavailability [15]: 66%; half-life [4]: 0.73 h; bioavailability [5]: 5.2%; T1/2 (Canis familiaris): 6.6 h; Cmax [16]: 1710 nM; Cmax [9]: 1060 nM; half-life [17]: 4.48 h; bioavailability [18]: 66%; Cmax [10]: 310 nM; half-life [11]: 0.42 h; Cmax [19]: 1160 nM
Cc1nc(N)ccc1CNC(=O)Cn1c(C)cnc(NCCc2ccccc2)c1=O [L-375378]			0.41			
